Measurements from ChEMBL document CHEMBL1201862, “PubChem BioAssay data set” (2004).
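Each compound was tested at five concentrations against cells in 96-well plates for 48 hours. The concentration for 50% growth inhibition is given as GI50.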 The source made the active and inactive calls. No stated cut-off is given here; in the data, active = GI50 up to about 1.1 µM and inactive = higher.

Columns and labels:
Experiment in all cases: NCI-60 cell line screen, 48 h
OVCAR-8 = tested on: OVCAR-8
BT-549 = tested on: BT-549
SF-295 = tested on: SF-295
Hs-578T = tested on: Hs-578T
786-0 = tested on: 786-0
SK-MEL-28 = tested on: SK-MEL-28
TK-10 = tested on: TK-10
COLO 205 = tested on: COLO 205
HOP-92 = tested on: HOP-92
NCI-H23 = tested on: NCI-H23
SK-MEL-2 = tested on: SK-MEL-2
PC-3 = tested on: PC-3
MDA-MB-435 = tested on: MDA-MB-435
NCI-H460 = tested on: NCI-H460
RXF 393 = tested on: RXF 393
MDA-N = tested on: MDA-N
MDA-MB-231 = tested on: MDA-MB-231
CCRF-CEM = tested on: CCRF-CEM
HCT-15 = tested on: HCT-15
KM-20L2 = tested on: KM-20L2

Structure (SMILES) | GI50 (OVCAR-8) | GI50 (BT-549) | GI50 (SF-295) | GI50 (Hs-578T) | GI50 (786-0) | GI50 (SK-MEL-28) | GI50 (TK-10) | GI50 (COLO 205) | GI50 (HOP-92) | GI50 (NCI-H23) | GI50 (SK-MEL-2) | GI50 (PC-3) | GI50 (MDA-MB-435) | GI50 (NCI-H460) | GI50 (RXF 393) | GI50 (MDA-N) | GI50 (MDA-MB-231) | GI50 (CCRF-CEM) | GI50 (HCT-15) [µM] | GI50 (KM-20L2)
C/C(=N\NC(=O)c1ccncc1)c1sc(-n2nc(-c3ccccc3)cc2-c2ccccc2)nc1C | > 100 µM (inactive) | > 31.6 µM (inactive) | > 31.6 µM (inactive) | > 74.3 µM (inactive) | > 31.6 µM (inactive) | > 31.6 µM (inactive) | > 31.6 µM (inactive) | > 100 µM (inactive) | > 31.6 µM (inactive) | > 31.6 µM (inactive) | > 31.6 µM (inactive) | > 31.6 µM (inactive) | > 31.6 µM (inactive) | > 31.6 µM (inactive) | > 31.6 µM (inactive) | > 100 µM (inactive) | > 63 µM (inactive) | > 31.6 µM (inactive) | > 31.6 | –
CNC(=O)C(C)C1CCC2(C)C=CC(=O)C(C)=C2C1O (stereo not drawn) | > 49.4 µM (inactive) | – | > 44.8 µM (inactive) | – | – | > 100 µM (inactive) | – | > 47.2 µM (inactive) | > 100 µM (inactive) | > 100 µM (inactive) | > 100 µM (inactive) | – | – | > 100 µM (inactive) | > 100 µM (inactive) | – | – | > 100 µM (inactive) | > 100 | > 100 µM (inactive)
COC(=O)N1C=Cc2c(c(C)c3c([nH]c4ccccc43)c2C)C1C (stereo not drawn) | 18.3 µM (inactive) | – | 13.7 µM (inactive) | – | 13.2 µM (inactive) | 15.5 µM (inactive) | 19.6 µM (inactive) | 18.7 µM (inactive) | 20.1 µM (inactive) | 17.7 µM (inactive) | 18.3 µM (inactive) | – | – | 22.5 µM (inactive) | – | – | – | 14.8 µM (inactive) | 10.6 | 12.2 µM (inactive)
CN(C)CN1C(=O)/C(=N\n2c(S)nnc2-c2ccncc2)c2ccccc21 | 23.7 µM (inactive) | 94.4 µM (inactive) | > 100 µM (inactive) | 42.5 µM (inactive) | 16.9 µM (inactive) | 57.1 µM (inactive) | 41.9 µM (inactive) | 38.3 µM (inactive) | 76.9 µM (inactive) | 37.8 µM (inactive) | 21.4 µM (inactive) | 35.6 µM (inactive) | 15.8 µM (inactive) | 38.3 µM (inactive) | 17 µM (inactive) | 16.7 µM (inactive) | > 100 µM (inactive) | 9.38 µM (inactive) | 28.1 | –
CC(C)CC(N/C=C1/N=C(c2ccccc2)OC1=O)C(=O)O (stereo not drawn) | > 100 µM (inactive) | – | > 100 µM (inactive) | – | > 100 µM (inactive) | > 100 µM (inactive) | > 100 µM (inactive) | > 100 µM (inactive) | – | > 100 µM (inactive) | > 100 µM (inactive) | – | – | > 100 µM (inactive) | > 100 µM (inactive) | – | – | > 100 µM (inactive) | > 100 | > 100 µM (inactive)
CC(C)C1(O)C(=O)N(c2c(F)c(F)c(F)c(F)c2F)C(=S)N1CCSc1ccccc1 (stereo not drawn) | 19 µM (inactive) | 16.1 µM (inactive) | 17.3 µM (inactive) | 22.6 µM (inactive) | 19.1 µM (inactive) | 16.5 µM (inactive) | 14.7 µM (inactive) | 17.9 µM (inactive) | 9.53 µM (inactive) | 18.1 µM (inactive) | 17.7 µM (inactive) | 15.7 µM (inactive) | 18.2 µM (inactive) | 19.2 µM (inactive) | 17.3 µM (inactive) | 17.2 µM (inactive) | 13.1 µM (inactive) | 13.9 µM (inactive) | 17.9 | –
CCOC(=O)/C=C(\C(=O)OCC)n1ccc(=O)n(Cc2cnnn2CCCCOC(C)=O)c1=O | 5.08 µM (inactive) | 16.4 µM (inactive) | 27.4 µM (inactive) | 16.3 µM (inactive) | 3.46 µM (inactive) | 6 µM (inactive) | 4.54 µM (inactive) | 1.3 µM (inactive) | 2.57 µM (inactive) | 13.2 µM (inactive) | 14.7 µM (inactive) | 9.4 µM (inactive) | 6.85 µM (inactive) | 8.53 µM (inactive) | 0.697 µM (active) | 22.5 µM (inactive) | 15.2 µM (inactive) | 1.99 µM (inactive) | 3.73 | –
O=C1NC2CCCCCC2C12CCCCC2 (stereo not drawn) | – | – | > 100 µM (inactive) | – | – | > 100 µM (inactive) | > 100 µM (inactive) | – | – | > 100 µM (inactive) | – | – | – | > 100 µM (inactive) | > 100 µM (inactive) | – | – | > 100 µM (inactive) | > 100 | > 100 µM (inactive)
COc1ccc2c(c1)[n+]([O-])c(-c1cccc(Cl)c1)c(N)[n+]2[O-] | 40.3 µM (inactive) | – | 97.1 µM (inactive) | – | 95.1 µM (inactive) | 23.6 µM (inactive) | – | 16.6 µM (inactive) | > 100 µM (inactive) | 23.9 µM (inactive) | 18.7 µM (inactive) | – | – | 27.4 µM (inactive) | 53.8 µM (inactive) | – | – | 22.9 µM (inactive) | – | 37.8 µM (inactive)
CN(C)CCNC(=O)c1cccc2cc3cc(O)ccc3nc12 | 0.796 µM (active) | – | 1 µM (active) | – | – | 1.92 µM (inactive) | – | 0.897 µM (active) | 0.792 µM (active) | 1.24 µM (inactive) | 2.14 µM (inactive) | – | – | 0.361 µM (active) | 1.11 µM (active) | – | – | 0.59 µM (active) | 1.23 | 2.44 µM (inactive)
CCCCCCCCCCCCCCCCP(=O)([O-])OCC[N+](C)(C)C | 16.9 µM (inactive) | 9.53 µM (inactive) | 12.9 µM (inactive) | 15.8 µM (inactive) | 7.46 µM (inactive) | 18.5 µM (inactive) | 1.5 µM (inactive) | 6.58 µM (inactive) | 15 µM (inactive) | 20.2 µM (inactive) | 15.1 µM (inactive) | 1.71 µM (inactive) | 17.3 µM (inactive) | 5.75 µM (inactive) | 3.93 µM (inactive) | 15.4 µM (inactive) | 20.5 µM (inactive) | 8.47 µM (inactive) | 6.56 | –
CC(C)C(=O)Nc1cc(C(F)(F)F)ccc1[N+](=O)[O-] | > 100 µM (inactive) | > 100 µM (inactive) | > 100 µM (inactive) | > 100 µM (inactive) | > 100 µM (inactive) | > 100 µM (inactive) | > 100 µM (inactive) | > 100 µM (inactive) | > 100 µM (inactive) | > 100 µM (inactive) | > 100 µM (inactive) | > 100 µM (inactive) | > 100 µM (inactive) | 72.6 µM (inactive) | > 100 µM (inactive) | > 100 µM (inactive) | > 100 µM (inactive) | > 100 µM (inactive) | > 100 | –
O=C1O/C(=C\c2ccc(O)cc2)C(c2ccc(O)c(Cl)c2)=C1Br | 17.6 µM (inactive) | 6.35 µM (inactive) | 14.5 µM (inactive) | 11.6 µM (inactive) | 13 µM (inactive) | 13.4 µM (inactive) | 18.9 µM (inactive) | 19.3 µM (inactive) | 12.9 µM (inactive) | 16.1 µM (inactive) | 14 µM (inactive) | 6.47 µM (inactive) | 15.7 µM (inactive) | 12.8 µM (inactive) | 18.6 µM (inactive) | 8.57 µM (inactive) | 21.8 µM (inactive) | 5.94 µM (inactive) | 12.9 | –
CS(=O)(=O)N/N=C/CN1C(=O)c2ccccc2C1=O | > 100 µM (inactive) | – | > 100 µM (inactive) | – | > 100 µM (inactive) | > 100 µM (inactive) | > 100 µM (inactive) | > 100 µM (inactive) | – | > 100 µM (inactive) | > 100 µM (inactive) | – | – | > 100 µM (inactive) | – | – | – | > 100 µM (inactive) | > 100 | > 100 µM (inactive)
CCN(CC)CCNC(=O)c1cc2cc(NC(=O)c3cc4cc(NC(=O)c5cc6cc(N)ccc6[nH]5)ccc4[nH]3)ccc2[nH]1 | > 100 µM (inactive) | > 100 µM (inactive) | > 100 µM (inactive) | > 100 µM (inactive) | > 100 µM (inactive) | > 100 µM (inactive) | > 100 µM (inactive) | > 100 µM (inactive) | > 100 µM (inactive) | > 100 µM (inactive) | > 100 µM (inactive) | > 100 µM (inactive) | > 100 µM (inactive) | > 100 µM (inactive) | > 100 µM (inactive) | > 100 µM (inactive) | > 100 µM (inactive) | > 100 µM (inactive) | > 100 | –
COC(=O)C1=C(O)c2cc3c(cc2[C@H](c2cc(OC)c(OC)c(OC)c2)C1C(=O)OC)OCO3 (stereo partly drawn) | 39.5 µM (inactive) | – | 57 µM (inactive) | – | 42.7 µM (inactive) | 52.8 µM (inactive) | 31.3 µM (inactive) | 19.7 µM (inactive) | 33.7 µM (inactive) | > 100 µM (inactive) | – | – | – | 61 µM (inactive) | 30.2 µM (inactive) | – | – | > 100 µM (inactive) | > 100 | > 100 µM (inactive)
COc1cc(C2c3cc4c(cc3[C@@H](Oc3ccc(F)cc3)C3COC(=O)[C@H]23)OCO4)cc(OC)c1O (stereo partly drawn) | 0.447 µM (active) | – | 0.807 µM (active) | – | – | 3.15 µM (inactive) | – | 1.75 µM (inactive) | 1.2 µM (inactive) | 0.335 µM (active) | – | – | – | 0.343 µM (active) | 0.234 µM (active) | – | – | 0.368 µM (active) | 0.364 | 0.286 µM (active)
COC(=O)C1OC2(CCCC3CC32)O[C@H]1C(=O)OC (stereo partly drawn) | > 100 µM (inactive) | > 100 µM (inactive) | > 100 µM (inactive) | > 100 µM (inactive) | > 100 µM (inactive) | > 100 µM (inactive) | > 100 µM (inactive) | > 100 µM (inactive) | 68.7 µM (inactive) | > 100 µM (inactive) | > 100 µM (inactive) | > 100 µM (inactive) | > 100 µM (inactive) | 90.4 µM (inactive) | > 100 µM (inactive) | > 100 µM (inactive) | > 100 µM (inactive) | > 100 µM (inactive) | > 100 | –
